Data taken from patent publication US20120121509A1, “VITAL FLUOROCHROME CONJUGATES AND METHODS OF USE” (THE GENERAL HOSPITAL CORPORATION, priority 2009, published 2012).

Tests used:
[1] = cited from earlier work; for Abs (absorption): first figure of Abs/em; for em (emission): second figure of Abs/em
Jurkat T cells [2] = experiment: Single channel FACS, GadoTO versus propidium iodide; assay type: cell-based
Experimental: Experimental Details for the Dual Wavelength FACS and Single Channel FACS: Cell culture: All experiments described used Jurkat T cells (Clone E6-1, ATCC #TIB-152). Cells were grown in RPMI 1640 medium (ThermoFisher Scientific, Hampton, N.H.) with 10% fetal bovine serum (Valley Biomedical, Winchester, Va.), 1% L-Glutamine (Mediatech, Manassas, Va.), 1% Penycillin-Streptomycin (Mediatech, Manassas, Va.). Media was changed every two or three days. Cells were maintained at 37° C., 5% CO2. Flow cytometry experiments: Cells were treated with camptothecin (CPT, 24 hrs, 10 μM). After removal of the medium, cells were resuspended into 100 μL of binding buffer (10 mM HEPES, 140 mM NaCl, 2.5 mM CaCl2, 1% FBS). Cells were stained at 37° C. for 15 min with 1 μL Annexin-APC (Invitrogen) and 1 μL propidium iodide (BD Pharmingen) or 1 μL of GadoTO (0.1 mM stock solution in binding buffer). Cells were diluted with 200 μL of binding buffer and analyzed by flow cytometry (FACSCalibur, Becton Dickinson). Fluorescence from the APC fluorochrome was measured in FL4, PI in FL3, and GadoTO in FL1. […]

infarcted myocardium = experiment: MR imaging of post myocardial infarction phases (age of infarction); assay type: in vivo; conditions: mouse
Description: An additional feature of the invention is an imaging method to determine the age of a myocardial infarction (MI), i.e., the time since the occlusion began. Patients can present with symptoms of variable intensity and duration that may or may indicate an infarction. Current techniques can define regions of non-functional myocardium, but cannot define the time of infarction. With developing (“young”) infarctions, treatments to limit or reverse the affected area are indicated, while with “old” infarctions such treatments are futile. In this method a vital fluorochrome conjugate is injected intravenously and MRI or PET or SPECT are used to measure the vital fluorochrome conjugates uptake in an infracted area.
FIGS. 6A and 6B show an example of a beating mouse heart injected with GadoTO imaged during phase 2 (18 hours) (FIG. 6A) and phase 4 (8 days) (FIG. 6B) of the post MI reaction phases. […] GadoTO can thus be used to specifically image acutely necrotic myocardium/tissue.

plasmid DNA = experiment: Relaxation assay: binding of GadoTO to plasmid DNA monitored by relaxometry (T1); conditions: GadoTO 1 mM, plasmid DNA 0.025 to 0.3 ug/uL, Bruker minispec; 95% confidence interval 0.078-0.101; read-out: half-maximal concentration (EC50) from T1 values
Experimental: Experimental Details of the Relaxation Assay: Gadolinium thiazole orange (GadoTO) at 1 mM was employed with increasing concentrations of plasmid DNA (DNA 0.025 to 0.3 ug/uL). Relaxation times were measured on a Bruker minispec at […].
(§1) Results from the Relaxation and Fluorescence Assays: The design of vital fluorochrome conjugates must preserve the essential features of the vital fluorochrome upon which it is based. The verification that a putative vital fluorochrome conjugates (VF-Linker-Reporter) has the properties of the VF upon which its was based is shown in FIGS. 2A, 2B, 3 and 4 which show the results with the vital fluorochrome conjugates known as GadoTO. Since the reporter group of GadoTO is a paramagnetic gadolinium chelate, binding can be ascertained by changes in the water relaxation rates. […] Binding of small GadoTO to the larger DNA slows the molecular motion, increasing the R1 relaxivity and decreasing the solution T1.

Jurkat T cells [3] = experiment: Dual wavelength FACS with Annexin V-APC, camptothecin-treated Jurkat T cells; assay type: cell-based
Experimental: Experimental Details for the Dual Wavelength FACS and Single Channel FACS: Cell culture: All experiments described used Jurkat T cells (Clone E6-1, ATCC #TIB-152). Cells were grown in RPMI 1640 medium (ThermoFisher Scientific, Hampton, N.H.) with 10% fetal bovine serum (Valley Biomedical, Winchester, Va.), 1% L-Glutamine (Mediatech, Manassas, Va.), 1% Penycillin-Streptomycin (Mediatech, Manassas, Va.). Media was changed every two or three days. Cells were maintained at 37° C., 5% CO2. Flow cytometry experiments: Cells were treated with camptothecin (CPT, 24 hrs, 10 μM). After removal of the medium, cells were resuspended into 100 μL of binding buffer (10 mM HEPES, 140 mM NaCl, 2.5 mM CaCl2, 1% FBS). Cells were stained at 37° C. for 15 min with 1 μL Annexin-APC (Invitrogen) and 1 μL propidium iodide (BD Pharmingen) or 1 μL of GadoTO (0.1 mM stock solution in binding buffer). Cells were diluted with 200 μL of binding buffer and analyzed by flow cytometry (FACSCalibur, Becton Dickinson). Fluorescence from the APC fluorochrome was measured in FL4, PI in FL3, and GadoTO in FL1.
Results from Dual Wavelength FACS: The exclusion of GadoTO from healthy cells and uptake by necrotic cells by FACS is shown in FIG. 3. […] GadoTO binding necrotic cells were of two intensities (Hi and Lo), indicating two subpopulations of necrotic cells.

Jurkat cells = experiment: In vitro T1 weighted MRI / FRI of packed cell phantoms of camptothecin treated Jurkat cells; assay type: cell-based; conditions: for uptake by CPT treated cells by MRI: T1 weighted MRI, FRI and relaxometry, CPT treated versus non-CPT treated Jurkat cells
Experimental: The interaction of GadoTO with necrotic cells is shown schematically in FIG. 5A. GadoTO is excluded by vital cells. Prolonged ischemia or a 48 hour exposure to CPT induces necrosis, which causes GadoTO to enter cells and intercalate with double stranded nuclear DNA. […] Effects on cellular T1 were confirmed by relaxometry studies using cell suspensions.

[4] = system: necrotic cardiomyocytes of infarcted myocardium; experiment: In vivo MR imaging of ischemia induced necrosis, left coronary artery ligation; conditions: mouse
Experimental: For in vivo MR studies, we employed a model of prolonged ischemia, obtained when the left coronary artery of a beating mouse heart was ligated for 18 hours. The ligation and procedure is similar to our previously described method (Sosnovik, D. E. et al., Magn. Reson. Med., 54:718-24, 2005) except the duration is for 18 hours. […] GadoTO was injected (18 hours post ligation) and imaged (21 h). […] Gd-DTPA washed in and out of damaged myocardium within 1 hour.

DNA = experiment: Fluorescence assay: binding of GadoTO to DNA monitored by fluorescence; conditions: GadoTO 2.35 uM, increasing DNA concentrations, emission 510-700 nm; 95% confidence interval 0.149-0.214; read-out: half-maximal concentration (EC50) from fluorescence values
Experimental: Experimental Details of the Fluorescence Assay: GadoTO at 2.35 uM was employed with increasing concentrations of DNA. Absorption spectra were measured on a Varian Cary 50 Bio UV-Visible spectrophotometer. The absorbance at 511 nm was measured. Fluorescence emission spectra were recorded on a Varian Cary Eclipse fluorescence spectrophometer. Fluorescence intensities were measured between 510 and 700 nm and corrected, when necessary, for matched absorbances at 511 nm. Fluorescence intensities were plotted versus DNA concentrations.
as §1

CN1/C(=C/C=C/C2C=CN(CCC[N+](C)(C)C)c3ccccc32)Oc2ccccc21 (centres unmarked) [YO-PRO 3]
Abs (absorption) [1]: 612 nm
em (emission) [1]: 631 nm

CCCN(CCCN(C)C)C1=C/C(=C\c2sc3ccccc3[n+]2C)c2ccccc2N1c1ccccc1 [Sybr Green]
Abs (absorption) [1]: 490 nm
em (emission) [1]: 520 nm

Gadolinium thiazole orange [GadoTO]
binding to cells, single channel FACS (Jurkat T cells [2]; Jurkat cells with CPT (+CPT), PI compared with GadoTO): two peaks (Lo and Hi) of highly fluorescent cells were seen
binding to cells, single channel FACS (Jurkat T cells [2]; Jurkat cells without CPT (-CPT)): cells failed to bind GadoTO
uptake in infarcted myocardium (infarcted myocardium; phase 2 (18 hours) post MI): Profound uptake
uptake in infarcted myocardium (infarcted myocardium; phase 4, injected 8 days after myocardial infarction): no uptake
EC50 (plasmid DNA): 89 µM
binding to cells, dual wavelength FACS (Jurkat T cells [3]; Jurkat T cells after camptothecin (+CPT, 24 hrs, 10 μM), necrotic cells): cells bound both probes
binding to cells, dual wavelength FACS (Jurkat T cells [3]; Jurkat T cells before camptothecin (-CPT), viable cells): failed to bind
uptake by CPT treated cells by MRI (Jurkat cells): brighter than non-CPT treated cells
nuclear cell fluorescence emission (Jurkat cells; after intercalation with double stranded nuclear DNA of necrotic cells): 533 nm
infarct on GRE image ([4]; injected 18 hours post ligation, imaged 21 h, gradient echo): barely visible infarct
infarct on IR GRE image ([4]; injected 18 hours post ligation, imaged 21 h, inversion recovery GRE): well-defined, bright infarct
EC50 (DNA): 179 µM

CN1/C(=C/c2cc[n+](CCC[N+](C)(C)C)c3ccccc23)Sc2ccccc21 [TO-PRO 1]
Abs (absorption) [1]: 515 nm
em (emission) [1]: 531 nm

C[n+]1c(/C=C/C=C2\C=CN(CCC[N+](C)(C)C)c3ccccc32)sc2ccccc21 [TO-PRO 3]
Abs (absorption) [1]: 612 nm
em (emission) [1]: 631 nm

CN1/C(=C/c2cc[n+](CCC[N+](C)(C)C)c3ccccc23)Oc2ccccc21 [YO-PRO]
Abs (absorption) [1]: 491 nm
em (emission) [1]: 509 nm

O=C([O-])CN(CCN(CC(=O)[O-])CC(=O)O)CCN(CC(=O)[O-])CC(=O)O.[Gd+3] [Gd-DTPA]
uptake by CPT treated cells by MRI (Jurkat cells): did not induce the uptake
time to wash in and out of damaged myocardium ([4]; damaged myocardium): ≤ 1 h

CN(C)CCCN1C=C\C(=C/C=C/C=C/c2sc3ccccc3[n+]2C)c2ccccc21.I.[I-] [TO-PRO 5]
Abs (absorption) [1]: 745 nm
em (emission) [1]: 770 nm
